One compound from US11590117B2, “Treatment of a hematologic malignancy with 2-(4-chlorophenyl)-n-((2-(2,6-dioxopiperidin-3-yl)-1-oxoisoindolin-5-yl)methyl)-2,2-difluoroacetamide” (priority 2016, dated 2023) can be followed below.

In one experiment the test system is AML cell lines. The experiment can be described thus: IncuCyte Kinetic Caspase-3/7 Apoptosis Assay, panel of twenty AML cell lines. The format is cell-based. The conditions noted are these: Homo sapiens. The text has this:
Methods. Acute Myeloid Leukemia Cell Line Panel: Human AML cell lines, AML-193, F36-P, GDM-1, HL-60, HNT-34, Kasumi-1, Kasumi-3, KG-1, KG-1a, ML-2, MOLM-13, MUTZ-8, MV-4-11, NOMO-1, OCI-AML2, OCI-AML3, SIG-M5, TF-1, THP-1, and UT-7 were obtained from American Type Culture Collection (ATCC; Manassas, Va.) and Deutsche Sammlung von Mikroorganismen und Zellkulturen (DSMZ) (Germany) cell banks. The AML panel includes cell line(s) from each FAB classification (M0-M7) (Table 7).
Cell Culture Conditions: Cell lines were maintained in growth media containing 20% fetal bovine serum (FBS) (Hyclone Cat no. SH30910.03, Lot no. AZF188864; Corning REFno. 35-010-CV, Lot no. 35010124) supplemented with or without 10 ng/mL human recombinant granulocyte-macrophage colony stimulating factor (Sigma-Aldrich Cat no. SRP3050) (Table 8). Medium was purchased from ATCC (Cat no. 30-2001, 30-2002, 30-2003, 30-2005) and Gibco (REF no. 12561-056). Human recombinant granulocyte macrophage colony stimulating factor (GM-CSF) was expressed in Escherichia coli. The cell doubling times for each cell line were provided by ATCC and DSMZ. Cells were maintained in humidified incubators at 5% carbon dioxide (CO2). All cell lines were acclimated to Eagle's minimal essential medium (EMEM)+20% FBS with or without GM-CSF over 2 to 4 weeks prior to live cell imaging using IncuCyte Zoom (Essen Biosciences). The use of EMEM was necessary to eliminate background fluorescence caused by riboflavin in most media.
Incubation of Cell Cultures with Compound 1: Compound 1 was provided for studies by Celgene chemistry group at a stock concentration of 30 mM in 20 μL dimethyl sulfoxide (DMSO) frozen. Costar 96-well cell culture plates (Corning Cat no. 3595) were coated with 100 μL of 10 µg/mL fibronectin (Sigma-Aldrich Cat no. F1141) for 4 hours at 37° C. and immediately used or refrigerated overnight for later use. Cells (3000 to 6000 cells) were plated in growth medi in fibronectin-coated 96-well plates and incubated for a minimum of a few hours to overnight. Cells were incubated with a 12-point concentration response in triplicate with Compound 1 ([…]) including DMSO and Media controls. A 3-fold serial dilution of Compound 1 starting from a concentration of 200 μM in 0.6% DMSO (diluted in Media) was performed. For most sensitive cell lines, a 3-fold serial dilution of Compound 1 starting from a concentration of 20 μM in 0.6% DMSO (diluted in media) was performed. A volume of 5 μL or 10 μL for each dilution was added to 100 μL or 200 μL cells, respectively (0.3% DMSO final) and incubated for live cell imaging.
Live Cell Imaging on IncuCyte Zoom: Following incubation of cells with Compound 1, diluted Caspase 3/7 reagent (Essen Biosciences Cat no. 4440) is added to each well. The Caspase-3/7 reagent couples the activated caspase-3/7 recognition motif (DEVD) to NucView™488, a DNA intercalating dye. The cleavage of substrate by activated caspase-3/7 results in the release of the DNA dye and green fluorescent staining of nuclear DNA. This allows imaging of cells undergoing caspase-3/7 mediated apoptosis over time. Caspase-3/7 activation was quantified using the IncuCyte™ ZOOM basic analyzer. Red-labeled cell lines were also imaged over time using the IncuCyte™ ZOOM basic analyzer, for determination of both cell doubling time and Compound 1 effect on cell viability. Experiments were performed at least two times in each cell line.
Next, a 4 parameter log-logistic model was used to determine relative EC50 at each time point by the ‘drm’ function from the R ‘drc’ package (Ritz C, Streibig J C. Bioassay Analysis using R. J. Statist. Software 2005; 12(5):1-22). Goodness of fit was measured by R squared (coefficient of determination or the amount of variation explained by the model fit) of ≥80%, and EC50 parameter was assessed by having a ratio of standard error to the parameter of ≤40%, and the presence of at least one concentration point above and below the reported EC50. […]

For experiment [1], the system named is Bone marrow mononuclear cells (BMMCs) from high risk MDS patients. The experiment is described as follows: MDS liquid culture, viable cell counting. The experiment is classed as cell-based, human. Particulars: 24 hours exposure, 37, 111, 333 and 1000 nM, dose dependent, maintained at least a week. The method, then:
Methods. The effect of Compound 1 on high risk MDS samples was measured in an in vitro liquid culture as well as by colony assays in order to better define its effect on stem/progenitor cells. Bone marrow mononuclear cells (BMMCs) from high risk MDS patients were cultured in vitro in CellGro medium (GellGenix) supplemented with hLDL (40 μg/mL), SCF (50 ng/mL), FLT3 […] (50 ng/mL), IL-3 (10 ng/mL), IL-6 (25 ng/mL) and TPO (100 ng/mL), all from Peprotech. During culture, cells were exposed to different concentrations of Compound 1 (37, 111, 333 and 1000 nM) or DMSO control. After 24 hours, cells were washed twice to remove compound and maintained in culture up to one week, performing viable cell counting on days 1, 3 and 7. Just after compound washout, […] per condition were collected for colony forming assays and another […] were stained for intracellular flow cytometry.

In another experiment the test system is HNT-34 cells and PBMCs. The experiment is described as follows: JC-1 mitochondrial membrane potential assay. The experiment is classed as cell-based, human. Particulars: HNT-34 cells over non-pre-activated PBMCs; 0.1 μM Compound 1; 72 hours.

Like-named read-outs stand apart in the source and are kept apart here.

The term EC50 denotes the concentration at which the effect is half-maximal. On to `O=C1CCC(N2Cc3cc(CNC(=O)C(F)(F)c4ccc(Cl)cc4)ccc3C2=O)C(=O)N1` (stereo not drawn) [Compound 1, 2-(4-chlorophenyl)-N-((2-(2,6-dioxopiperidin-3-yl)-1-oxoisoindolin-5-yl)methyl)-2,2-difluoroacetamide], for which the EC50 is 53 to 227 nM in the experiment with AML cell lines (12 h, 8 most sensitive cell lines (5 lines with curve fits), 12 hours, read-out: apoptosis EC50 12hr (range)); 7 to 916 nM in the experiment with AML cell lines (24 h, 14 of 20 cell lines with successful curve fits, 24 hours, read-out: apoptosis EC50 24hr (range)); 4 to 49 nM with AML cell lines (48 h, eight highly sensitive cell lines (HNT-34, Kasumi-3, HL-60, ML-2, MV4-11, KG-1, MUTZ-8, GDM-1), 48 hours, read-out: apoptosis EC50 48hr (range)); 27 nM with AML cell lines (48 h, eight highly sensitive cell lines, 48 hours, read-out: apoptosis average EC50 48hr); 231 to 896 nM in the experiment on AML cell lines (48 h, four least sensitive cell lines (UT-7, F36-P, MOLM-13, OCI-AML3), 48 hours, read-out: apoptosis EC50 48hr (range)); 458 nM in the experiment on AML cell lines (48 h, four least sensitive cell lines (UT-7, F36-P, MOLM-13, OCI-AML3), 48 hours, read-out: apoptosis average EC50 48hr). Moreover, the EC50 in the experiment with AML cell lines (48 h, seven moderately sensitive cell lines (OCI-AML-2, AML-193, SIG-M5, Kasumi-1, TF-1, Nomo-1, KG-1a), 48 hours, read-out: apoptosis EC50 48hr (range)) is 81 to 145 nM; in the experiment on AML cell lines (48 h, seven moderately sensitive cell lines, 48 hours, read-out: apoptosis average EC50 48hr), 114 nM; in the experiment on AML cell lines (72 h, AML cell panel, 72 hours, read-out: apoptosis EC50 72hr (range)) it was 3 to 971 nM; in the experiment on AML cell lines (96 h, AML cell panel, 96 hours, read-out: apoptosis EC50 96hr (range)), 1 to 418 nM. In addition, the “number of viable cells” value in experiment [1] is given as “significantly reduced”. In addition, in the experiment on HNT-34 cells and PBMCs, the “difference in increase of membrane depolarization” value is recorded as around 7 fold.
